Source: article PMC4387075 (Neuropharmacology, 2015)
“Also recorded” adds a separate entry of the source. Read-outs that look alike come from different tables or passages of the source.

Assays:
cerebellar granule cells = assay: Cell viability; settings: for IC50: read-out: IC50 for inhibition of glutamate neuroprotection, 1 mM glutamate in K5; for effect of agonist on viability of granule cells in K5: K5, 16 hours, MTT; for maximum effect on granule cell viability: percent of viability in K25 cultures, K5 media, 16 hours; for effect of antagonist on NMDA-induced increase in granule cell viability: 1 mM NMDA in K5, MK801 1 μM, JNJ16259685 300 μM
mGlu1 receptors = mGlu1 receptors (Rattus norvegicus, UniProt P23385); assay: PI hydrolysis; format: cell-based; settings: for PI hydrolysis Emax, % glu: efficacy as percentage of glutamate efficacy, mean +/- 95% confidence interval; for agonist bias between PI hydrolysis and neuroprotection: from Emax values of both responses (Figure 7); for effect of antagonist on PI hydrolysis stimulated by quisqualate, DHPG and ACPD: agonists 100 μM, JNJ16259685 300 μM, CPCCOEt 200 μM, MPEP 10 μM
Sequence of mGlu1 receptors (P23385 19-1199): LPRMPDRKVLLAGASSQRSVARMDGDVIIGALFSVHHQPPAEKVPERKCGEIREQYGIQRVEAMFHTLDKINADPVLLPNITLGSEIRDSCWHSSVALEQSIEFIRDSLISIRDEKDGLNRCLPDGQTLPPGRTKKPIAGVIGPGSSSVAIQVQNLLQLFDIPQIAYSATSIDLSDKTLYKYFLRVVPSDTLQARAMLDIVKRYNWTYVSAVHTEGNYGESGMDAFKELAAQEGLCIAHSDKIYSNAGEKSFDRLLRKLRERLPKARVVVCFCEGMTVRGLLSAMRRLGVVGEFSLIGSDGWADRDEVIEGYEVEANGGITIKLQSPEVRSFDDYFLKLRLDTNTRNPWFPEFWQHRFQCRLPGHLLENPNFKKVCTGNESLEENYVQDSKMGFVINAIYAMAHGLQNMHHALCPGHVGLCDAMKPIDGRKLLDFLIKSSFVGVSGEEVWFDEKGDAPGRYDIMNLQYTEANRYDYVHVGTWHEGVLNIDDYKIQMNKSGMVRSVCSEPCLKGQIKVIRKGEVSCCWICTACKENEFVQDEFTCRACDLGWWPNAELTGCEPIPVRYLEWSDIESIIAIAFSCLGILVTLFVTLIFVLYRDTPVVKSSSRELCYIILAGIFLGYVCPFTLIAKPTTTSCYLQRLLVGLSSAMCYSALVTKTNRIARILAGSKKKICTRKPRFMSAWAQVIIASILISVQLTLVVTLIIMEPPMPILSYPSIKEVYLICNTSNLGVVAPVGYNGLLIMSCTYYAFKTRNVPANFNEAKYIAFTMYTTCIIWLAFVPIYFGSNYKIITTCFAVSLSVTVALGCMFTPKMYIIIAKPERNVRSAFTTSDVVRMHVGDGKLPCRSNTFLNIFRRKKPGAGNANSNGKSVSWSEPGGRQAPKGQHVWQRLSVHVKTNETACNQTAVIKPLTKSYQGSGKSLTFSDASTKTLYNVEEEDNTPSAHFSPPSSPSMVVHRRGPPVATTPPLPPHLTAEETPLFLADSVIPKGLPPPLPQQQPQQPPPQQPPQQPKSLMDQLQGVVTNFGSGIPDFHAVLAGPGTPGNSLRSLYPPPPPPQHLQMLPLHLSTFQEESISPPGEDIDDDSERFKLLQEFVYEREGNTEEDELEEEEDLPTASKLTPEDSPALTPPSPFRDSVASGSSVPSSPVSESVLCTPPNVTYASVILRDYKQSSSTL

[1] = system: mGlu1 receptor-expressing CHO cells; settings: ref Emery et al., 2012, cited from earlier work; for ERK phosphorylation or protection: transfected CHO cells; for protection from serum starvation: mGlu1 receptor-expressing CHO cells
mGlu1 receptor = settings: mGlu1 receptor-expressing CHO cells; ref Emery et al., 2012; cited from earlier work
[2] = read-out: PI hydrolysis EC50, mean (95% confidence interval)

**Q.** Which IC50 (cerebellar granule cells) does the source give for “7-(Hydroxyimino)cyclopropa[b]chromen-1a-carboxylate ethyl ester [CPCCOEt]” here?
**A.** 123 µM

**Q.** What does the source list for `N[C@@]1(C(=O)O)CC[C@@H](C(=O)O)C1` [ACPD, (1S,3R)-1-aminocyclopentane-1,3-dicarboxylic acid]?
**A.** agonist type for PI hydrolysis compared to glutamate (mGlu1 receptors): partial agonists; PI hydrolysis at 100 μM agonist compared to Locke's media only (mGlu1 receptors): significant increase; PI hydrolysis Emax, % glu (mGlu1 receptors): 66 ± 1.4 % glu; agonist bias between PI hydrolysis and neuroprotection (mGlu1 receptors): completely biased towards PI hydrolysis; effect of agonist on viability of granule cells in K5 (cerebellar granule cells): not significantly increased; maximum effect on granule cell viability (cerebellar granule cells): 49 ± 5%

**Q.** For `N[C@@H](CC(=O)O)C(=O)O` [Aspartate, aspartate], which EC50 (mGlu1 receptors) is on record?
**A.** 19 µM

**Q.** What about the “PI hydrolysis Emax, % glu” value (mGlu1 receptors) of the same compound?
**A.** 103 ± 7.8 % glu

**Q.** What about the “agonist bias between PI hydrolysis and neuroprotection” value (mGlu1 receptors) of the same compound?
**A.** balanced agonists

**Q.** What about the “effect of agonist on viability of granule cells in K5” value (from here on “effect of agonist”) (cerebellar granule cells) of the same compound?
**A.** prevented

**Q.** Which results are given for `N[C@@H](CS(=O)(=O)O)C(=O)O` [Cysteic acid]?
**A.** PI hydrolysis Emax, % glu (mGlu1 receptors): 87 ± 4.2 % glu; EC50 (mGlu1 receptors; [2]): 22 µM; effect of agonist on viability of granule cells in K5 (cerebellar granule cells): prevented

**Q.** Which “PI hydrolysis Emax, % glu” value (mGlu1 receptors) does the source give for `N[C@@H](CS(=O)O)C(=O)O` [Cysteine sulfinic acid] here?
**A.** 82 ± 10 % glu

**Q.** And the EC50 (mGlu1 receptors; [2])?
**A.** 29 µM

**Q.** And the “effect of agonist” value (cerebellar granule cells)?
**A.** prevented

**Q.** What does the source list for `NC(C(=O)O)c1cc(O)cc(O)c1` (stereo not drawn) [DHPG, 3,5-dihydroxyphenylglycine]?
**A.** EC50 (mGlu1 receptors): 23 µM; agonist type for PI hydrolysis compared to glutamate (mGlu1 receptors): partial agonists; PI hydrolysis at 100 μM agonist compared to Locke's media only (mGlu1 receptors): significant increase; PI hydrolysis Emax, % glu (mGlu1 receptors): 69 ± 3.7 % glu; agonist bias between PI hydrolysis and neuroprotection (mGlu1 receptors): completely biased towards PI hydrolysis; ERK phosphorylation or protection [1]: do not stimulate; effect of agonist on viability of granule cells in K5 (cerebellar granule cells): not significantly increased

**Q.** Which “effect of agonist” value (cerebellar granule cells) does the source give for `N[C@@H](CCC(=O)O)C(=O)O` [Glutamate, glutamate] here?
**A.** prevented

**Q.** And the “maximum effect on granule cell viability” value (cerebellar granule cells)?
**A.** 65%

**Q.** With `N[C@@H](CCS(=O)(=O)O)C(=O)O` [Homocysteic acid] as the compound, how does the “PI hydrolysis Emax, % glu” value (mGlu1 receptors) read?
**A.** 84 ± 7.4 % glu

**Q.** What about the EC50 (mGlu1 receptors; [2]) of the same compound?
**A.** 29 µM

**Q.** And the “effect of agonist” value (cerebellar granule cells)?
**A.** prevented

**Q.** What does the source list for `COC1CCC(C(=O)c2ccc3nc4c(cc3c2)CCCO4)CC1` (stereo not drawn) [JNJ16259685]?
**A.** effect of antagonist on PI hydrolysis stimulated by quisqualate, DHPG and ACPD (mGlu1 receptors): significantly decreased; effect of antagonist on NMDA-induced increase in granule cell viability (cerebellar granule cells): blocked; IC50 (cerebellar granule cells): 19.8 µM

**Q.** With `C[C@]12N[C@H](Cc3ccccc31)c1ccccc12` [MK801] as the compound, how does the “effect of antagonist on NMDA-induced increase in granule cell viability” value (cerebellar granule cells) read?
**A.** significantly inhibited

**Q.** With `Cc1cccc(C#Cc2ccccc2)n1` [MPEP] as the compound, how does the “effect of antagonist on PI hydrolysis stimulated by quisqualate, DHPG and ACPD” value (mGlu1 receptors) read?
**A.** no effect

**Q.** With `CN[C@H](CC(=O)O)C(=O)O` [NMDA, N-methyl-D-aspartate] as the compound, how does the “maximum effect on granule cell viability” value (cerebellar granule cells) read?
**A.** 73%

**Q.** Which results are given for `N[C@@H](Cn1oc(=O)[nH]c1=O)C(=O)O` [Quisqualate, quisqualate]?
**A.** agonist type for PI hydrolysis compared to glutamate (mGlu1 receptors): full agonist; PI hydrolysis at 100 μM agonist compared to Locke's media only (mGlu1 receptors): significant increase; PI hydrolysis Emax, % glu (mGlu1 receptors): 109 ± 7.8 % glu; agonist bias between PI hydrolysis and neuroprotection (mGlu1 receptors): completely biased towards PI hydrolysis; ERK phosphorylation or protection [1]: do not stimulate; effect of agonist on viability of granule cells in K5 (cerebellar granule cells): not significantly increased; also recorded: no efficacy

**Q.** Which results are given for `O=C(O)CCCC(=O)O` [glutaric acid]?
**A.** efficacy for PI hydrolysis (mGlu1 receptor): no efficacy; protection from serum starvation [1]: able to protect

**Q.** With `O=C(O)CCC(=O)O` [succinic acid] as the compound, how does the “efficacy for PI hydrolysis” value (mGlu1 receptor) read?
**A.** no efficacy

**Q.** What about the “protection from serum starvation” value [1] of the same compound?
**A.** able to protect
